Changes are numbered by the printed parent chain.
Legend:
[1] = target: T1, FFAR3 (Homo sapiens, UniProt O14843); assay: Calcium mobilization assay, FFAR3 in HEK293 stably expressing Gα16; type: cell-based; conditions: in words; related receptor
T1 construct: expressed in transfected cells; host or cells: HEK293 stably expressing Gα16
T1 sequence (O14843 1-346): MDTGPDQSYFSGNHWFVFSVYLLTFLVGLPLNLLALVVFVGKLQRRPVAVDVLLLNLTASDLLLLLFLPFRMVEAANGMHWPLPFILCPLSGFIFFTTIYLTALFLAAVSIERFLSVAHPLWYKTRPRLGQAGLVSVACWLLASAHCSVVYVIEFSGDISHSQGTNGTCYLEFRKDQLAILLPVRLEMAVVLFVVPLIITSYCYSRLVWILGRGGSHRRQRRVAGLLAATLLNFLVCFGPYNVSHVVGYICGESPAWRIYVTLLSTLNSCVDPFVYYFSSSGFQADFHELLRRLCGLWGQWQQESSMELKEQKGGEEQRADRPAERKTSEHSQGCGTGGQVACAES
Experimental: (§1) HEK293 cells were obtained from ATCC (Manassas, VA, USA) and cultured in DMEM supplemented with 10% (v/v) FBS, 100 mg/L penicillin, and 100 mg/L streptomycin in 5% CO2 at 37 °C. For transient transfection, ~2.5 × 10^6 cells were mixed with 2 µg plasmids in 200 µL transfection buffer, and electroporation was carried out with a Scientz-2C electroporation apparatus (Scientz Biotech, Ningbo, China). The experiments were carried out 24 h after transfection. HEK293 cell lines stably expressing Gα16 were constructed by our laboratory.
(§2) For OXGR1, plasmids were transfected into HEK293 (other receptors were transfected into HEK293 stably expressing Gα16) and seeded at a density of 4 × 10^4 per well into 96-well culture plates and incubated for 24 h at 37 °C in 5% CO2. The next day, Cells were incubated with 2 μM/L Fluo-4 AM in HBSS supplemented with 5.6 mM/L D-glucose and 250 μM/L sulfinpyrazone at 37 °C for 45 min. […] Three independent measurements were repeated, i.e., three different transfections, with three technical replicates performed for each experiment. EC50 and Emax values for each curve were calculated by Prism 8.0 software (GraphPad Software).

[2] = target: T2, SUCR1 mutants (variant named in the endpoint) (Homo sapiens, UniProt Q9BXA5, I157M); assay: Calcium mobilization assay, SUCR1 mutants in HEK293 stably expressing Gα16; type: cell-based;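 further: percent of the maximal response to succinate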
T2 construct: The full-length human SUCR1 and mutations were fused after the HA signal peptide and Flag tag; HA signal peptide (N); Flag (N); expressed in transfected cells; host or cells: HEK293 stably expressing Gα16 (pcDNA6.0, transient electroporation)
T2 sequence (Q9BXA5 1-334 I157M): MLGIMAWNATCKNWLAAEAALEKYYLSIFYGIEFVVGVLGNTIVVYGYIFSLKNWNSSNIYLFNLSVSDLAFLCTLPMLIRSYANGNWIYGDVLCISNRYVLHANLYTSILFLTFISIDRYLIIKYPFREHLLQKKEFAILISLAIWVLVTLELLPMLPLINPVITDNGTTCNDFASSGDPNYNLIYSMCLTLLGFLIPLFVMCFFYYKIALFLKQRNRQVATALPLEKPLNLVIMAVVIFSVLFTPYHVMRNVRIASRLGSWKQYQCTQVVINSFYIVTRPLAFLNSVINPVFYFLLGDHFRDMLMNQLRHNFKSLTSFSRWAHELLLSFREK

[3] = target: T3, SUCR1 mutants (variant named in the endpoint) (Homo sapiens, UniProt Q9BXA5, F285A/L102F); assay: as above; type: cell-based; conditions: HEK293
T3 construct: The full-length human SUCR1 and mutations were fused after the HA signal peptide and Flag tag; HA signal peptide (N); Flag (N); expressed in transfected cells; host or cells: HEK293 stably expressing Gα16 (pcDNA6.0, transient electroporation)
T3 sequence (Q9BXA5 1-334 L102F/F285A): T2 sequence (Q9BXA5 1-334 I157M) with L102F, M157I, F285A

[4] = system: OXGR1 mutants (variant named in the endpoint); assay: Calcium mobilization assay, OXGR1 mutants in HEK293; conditions: for Emax: each ligand normalized to WT (100%);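 on all read-outs here: human OXGR1 variants transiently expressed in HEK293 cells, with intracellular calcium read out by Fluo-4 AM fluorescence, measured 24 h after transfection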
Experimental: The full-length human SUCR1 and mutations were fused after the HA signal peptide and Flag tag. The constructs were cloned into pcDNA6.0 vector for HEK293 system.
as §1, §2

[5] = target: T4, SUCR1 mutants (variant named in the endpoint) (Homo sapiens, UniProt Q9BXA5, Y248F); assay: Calcium mobilization assay, SUCR1 mutants in HEK293 stably expressing Gα16; type: cell-based; conditions: HEK293, SUCR1 Y248F; Emax relative to the SUC;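 further: percent of the maximal response to succinate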
T4 construct: The full-length human SUCR1 and mutations were fused after the HA signal peptide and Flag tag; HA signal peptide (N); Flag (N); expressed in transfected cells; host or cells: HEK293 stably expressing Gα16 (pcDNA6.0, transient electroporation)
T4 sequence (Q9BXA5 1-334 Y248F): T2 sequence (Q9BXA5 1-334 I157M) with M157I, Y248F

For O=C(O)CCC(=O)C(=O)O [AKG, α-ketoglutarate], which “activation of FFAR3” value [1] is on record?
Its value is “no cross-reactivity”.

And the Emax ([2]; HEK293)?
The Emax was 0.43 ± 0.8%.

And the Emax [3]?
Its Emax is 5.5 ± 1%.

For C=C(CC(=O)O)C(=O)O [ITA, itaconate], which “activation of FFAR3” value [1] is on record?
The value was “no detectable activation”.

And the EC50 ([4]; OXGR1 D185A)?
Its EC50 is over 1000 µM.

What about the Emax ([4]; OXGR1 D185A) of the same compound?
Its Emax is 4.9± 2 WT%.

What about the EC50 ([4]; OXGR1 E97A) of the same compound?
The EC50 was over 1000 µM.

And the Emax ([4]; OXGR1 E97A)?
Its Emax is 47± 3 WT%.

And the EC50 ([4]; OXGR1 F113A)?
The EC50 was over 1000 µM.

What about the Emax ([4]; OXGR1 F113A) of the same compound?
The Emax was 26± 3 WT%.

What about the EC50 ([4]; OXGR1 F113W) of the same compound?
The EC50 was 21.3 ± 2 µM.

What about the “increase in potency by F113W mutation” value ([4]; OXGR1 F113W versus WT) of the same compound?
The value was ~ 2 fold.

What about the Emax ([4]; OXGR1 F113W) of the same compound?
Its Emax is 86± 2 WT%.

What about the EC50 ([4]; OXGR1 F130D) of the same compound?
Its EC50 is over 1000 µM.

What about the Emax ([4]; OXGR1 F130D) of the same compound?
Its Emax is -5.6± 4 WT%.

And the EC50 ([4]; OXGR1 F130E)?
The EC50 was over 1000 µM.

What about the Emax ([4]; OXGR1 F130E) of the same compound?
The Emax was -5.3± 3 WT%.

And the EC50 ([4]; OXGR1 F250A)?
Its EC50 is over 1000 µM.

What about the Emax ([4]; OXGR1 F250A) of the same compound?
The Emax was 2.2± 3 WT%.

And the EC50 ([4]; OXGR1 F254A)?
Its EC50 is over 1000 µM.

And the Emax ([4]; OXGR1 F254A)?
Its Emax is 0.87± 3 WT%.

And the EC50 ([4]; OXGR1 F257A)?
The EC50 was 52 ± 10 µM.

And the Emax ([4]; OXGR1 F257A)?
The Emax was 54± 2 WT%.

And the EC50 ([4]; OXGR1 F257Y)?
Its EC50 is 130 ± 40 µM.

What about the Emax ([4]; OXGR1 F257Y) of the same compound?
Its Emax is 120± 10 WT%.

What about the EC50 ([4]; OXGR1 H114A) of the same compound?
The EC50 was over 1000 µM.

And the Emax ([4]; OXGR1 H114A)?
Its Emax is -4.6± 2 WT%.

What about the EC50 ([4]; OXGR1 H114L) of the same compound?
Its EC50 is over 1000 µM.

And the Emax ([4]; OXGR1 H114L)?
Its Emax is -5.6± 5 WT%.

And the EC50 ([4]; OXGR1 H258A)?
The EC50 was over 1000 µM.

And the Emax ([4]; OXGR1 H258A)?
The Emax was 3.0± 6 WT%.

And the EC50 ([4]; OXGR1 H281A)?
The EC50 was 670 ± 60 µM.

What about the Emax ([4]; OXGR1 H281A) of the same compound?
Its Emax is 74±3 WT%.

What about the EC50 ([4]; OXGR1 I121A) of the same compound?
The EC50 was over 1000 µM.

What about the Emax ([4]; OXGR1 I121A) of the same compound?
The Emax was 15± 5 WT%.

What about the EC50 ([4]; OXGR1 I172A) of the same compound?
The EC50 was over 1000 µM.

What about the Emax ([4]; OXGR1 I172A) of the same compound?
The Emax was -0.93± 2 WT%.

What about the EC50 ([4]; OXGR1 I285A) of the same compound?
The EC50 was over 1000 µM.

What about the Emax ([4]; OXGR1 I285A) of the same compound?
Its Emax is 34±5 WT%.

And the EC50 ([4]; OXGR1 L36A)?
The EC50 was over 1000 µM.

What about the Emax ([4]; OXGR1 L36A) of the same compound?
The Emax was 6.5± 8 WT%.

And the EC50 ([4]; OXGR1 L89A)?
The EC50 was over 1000 µM.

And the Emax ([4]; OXGR1 L89A)?
Its Emax is -4.5± 2.0 WT%.

What about the EC50 ([4]; OXGR1 L117A) of the same compound?
Its EC50 is 500 ± 20 µM.

And the Emax ([4]; OXGR1 L117A)?
The Emax was 63± 4 WT%.

And the EC50 ([4]; OXGR1 L124A)?
Its EC50 is over 1000 µM.

And the Emax ([4]; OXGR1 L124A)?
Its Emax is 36± 3 WT%.

What about the EC50 ([4]; OXGR1 L186A) of the same compound?
Its EC50 is over 1000 µM.

And the Emax ([4]; OXGR1 L186A)?
The Emax was -4.0± 2 WT%.

What about the EC50 ([4]; OXGR1 L186F) of the same compound?
Its EC50 is 180 ± 50 µM.

What about the Emax ([4]; OXGR1 L186F) of the same compound?
Its Emax is 80± 9 WT%.

What about the EC50 ([4]; OXGR1 L299P) of the same compound?
The EC50 was over 1000 µM.

What about the “activation of OXGR1 L299P” value ([4]; OXGR1 L299P, in words) of the same compound?
Its value is “abolished”.

What about the EC50 ([4]; OXGR1 M168I) of the same compound?
The EC50 was 510 ± 60 µM.

What about the Emax ([4]; OXGR1 M168I) of the same compound?
The Emax was 100± 8 WT%.

What about the EC50 ([4]; OXGR1 N28A) of the same compound?
The EC50 was 120 ± 30 µM.

What about the Emax ([4]; OXGR1 N28A) of the same compound?
Its Emax is 100± 8 WT%.

What about the EC50 ([4]; OXGR1 R110A) of the same compound?
The EC50 was over 1000 µM.

What about the Emax ([4]; OXGR1 R110A) of the same compound?
Its Emax is 6.5± 2 WT%.

What about the EC50 ([4]; OXGR1 R110E) of the same compound?
The EC50 was over 1000 µM.

What about the Emax ([4]; OXGR1 R110E) of the same compound?
The Emax was -2.0± 3 WT%.

And the EC50 ([4]; OXGR1 R110Q)?
Its EC50 is over 1000 µM.

And the Emax ([4]; OXGR1 R110Q)?
The Emax was -2.8± 0.7 WT%.

And the EC50 ([4]; OXGR1 R177A)?
Its EC50 is 320 ± 90 µM.

What about the Emax ([4]; OXGR1 R177A) of the same compound?
The Emax was 110± 3 WT%.

And the EC50 ([4]; OXGR1 R261A)?
The EC50 was over 1000 µM.

What about the Emax ([4]; OXGR1 R261A) of the same compound?
The Emax was 6.7± 2 WT%.

What about the EC50 ([4]; OXGR1 R264A) of the same compound?
The EC50 was over 1000 µM.

What about the Emax ([4]; OXGR1 R264A) of the same compound?
Its Emax is 24± 3 WT%.

What about the EC50 ([4]; OXGR1 R268A) of the same compound?
Its EC50 is over 1000 µM.

And the Emax ([4]; OXGR1 R268A)?
The Emax was -4.3± 4 WT%.

What about the EC50 ([4]; OXGR1 R288A) of the same compound?
The EC50 was over 1000 µM.

And the Emax ([4]; OXGR1 R288A)?
Its Emax is 11±7 WT%.

What about the EC50 ([4]; OXGR1 R288E) of the same compound?
Its EC50 is over 1000 µM.

And the EC50 ([4]; OXGR1 R288Q)?
The EC50 was over 1000 µM.

And the Emax ([4]; OXGR1 R288Q)?
The Emax was 14±1 WT%.

What about the EC50 ([4]; OXGR1 Y40A) of the same compound?
Its EC50 is over 1000 µM.

What about the Emax ([4]; OXGR1 Y40A) of the same compound?
Its Emax is 6.9± 9 WT%.

And the EC50 ([4]; OXGR1 Y82A)?
Its EC50 is over 1000 µM.

And the Emax ([4]; OXGR1 Y82A)?
The Emax was 56± 7 WT%.

What about the EC50 ([4]; OXGR1 Y93A) of the same compound?
The EC50 was over 1000 µM.

And the Emax ([4]; OXGR1 Y93A)?
Its Emax is 3.3± 2 WT%.

What about the EC50 ([4]; OXGR1 Y284A) of the same compound?
The EC50 was over 1000 µM.

And the Emax ([4]; OXGR1 Y284A)?
Its Emax is -9±2 WT%.

What about the Emax [5] of the same compound?
The Emax was 15 ± 2%.

What about the Emax ([2]; HEK293, SUCR1 I157M, Emax relative to the SUC) of the same compound?
The Emax was -0.44 ± 1%.

Source: PMC13372822 (The EMBO Journal, 2026)
